{
  "source": "ChEMBL document CHEMBL3797052",
  "about": "(Eur J Med Chem, 2016)",
  "data": [
    {"system": "not listed separately", "assay": "(§1) Antiproliferative activity against human SW620 cells assessed as growth inhibition after 48 hrs by sulforhodamine B assay", "format": "functional", "details": "SW-620, 48 h", "units": {"GI50": "µM", "TGI": "µM"}, "values": [
      {"smiles": "CNC(=O)c1cc(Oc2ccc3nc(NC(=O)Nc4cc(C(F)(F)F)cc(C(F)(F)F)c4)sc3c2)ccn1", "GI50": 1.56, "TGI": 3.29}
    ]},
    {"system": "not listed separately", "assay": "as §1", "format": "functional", "details": "SW-620, 48 h, read-out: LC50 (the source's name)", "units": {"CC50": "µM"}, "values": [
      {"smiles": "CNC(=O)c1cc(Oc2ccc3nc(NC(=O)Nc4cc(C(F)(F)F)cc(C(F)(F)F)c4)sc3c2)ccn1", "CC50": 6.97}
    ]},
    {"system": "not listed separately", "assay": "Antiproliferative activity against human SF268 cells assessed as cell growth at 10^-6 M after 48 hrs by sulforhodamine B assay", "format": "functional", "details": "SF-268, 48 h, read-out: Activity", "units": {"growth at 1 µM": "%"}, "values": [
      {"smiles": "CNC(=O)c1cc(Oc2ccc3nc(NC(=O)Nc4cc(C(F)(F)F)cc(C(F)(F)F)c4)sc3c2)ccn1", "growth at 1 µM": 65}
    ]},
    {"system": "KM12", "assay": "Antiproliferative activity against human KM12 cells assessed as cell growth at 10^-4 M after 48 hrs by sulforhodamine B assay", "format": "functional", "details": "KM12, 48 h, read-out: Activity", "units": {"growth at 100 µM": "%"}, "values": [
      {"smiles": "CNC(=O)c1cc(Oc2ccc3nc(NC(=O)Nc4cc(C(F)(F)F)cc(C(F)(F)F)c4)sc3c2)ccn1", "growth at 100 µM": -61}
    ]},
    {"system": "not listed separately", "assay": "Antiproliferative activity against human RPMI8226 cells assessed as cell growth at 10^-8 M after 48 hrs by sulforhodamine B assay", "format": "functional", "details": "RPMI-8226, 48 h, read-out: Activity", "units": {"growth at 0.01 µM": "%"}, "values": [
      {"smiles": "CNC(=O)c1cc(Oc2ccc3nc(NC(=O)Nc4cc(C(F)(F)F)cc(C(F)(F)F)c4)sc3c2)ccn1", "growth at 0.01 µM": 104}
    ]},
    {"system": "MCF7", "assay": "(§2) Antiproliferative activity against human MCF7 cells assessed as growth inhibition after 48 hrs by sulforhodamine B assay", "format": "functional", "details": "MCF7, 48 h", "units": {"GI50": "µM", "TGI": "µM"}, "values": [
      {"smiles": "CNC(=O)c1cc(Oc2ccc3nc(NC(=O)Nc4cc(C(F)(F)F)cc(C(F)(F)F)c4)sc3c2)ccn1", "GI50": 1.05, "TGI": 2.93}
    ]},
    {"system": "MCF7", "assay": "as §2", "format": "functional", "details": "MCF7, 48 h, read-out: LC50 (the source's name)", "units": {"CC50": "µM"}, "values": [
      {"smiles": "CNC(=O)c1cc(Oc2ccc3nc(NC(=O)Nc4cc(C(F)(F)F)cc(C(F)(F)F)c4)sc3c2)ccn1", "CC50": 8.23}
    ]},
    {"system": "U-251", "assay": "Antiproliferative activity against human U251 cells assessed as cell growth at 10^-7 M after 48 hrs by sulforhodamine B assay", "format": "functional", "details": "U-251, 48 h, read-out: Activity", "units": {"growth at 0.1 µM": "%"}, "values": [
      {"smiles": "CNC(=O)c1cc(Oc2ccc3nc(NC(=O)Nc4cc(C(F)(F)F)cc(C(F)(F)F)c4)sc3c2)ccn1", "growth at 0.1 µM": 106}
    ]},
    {"system": "NCI-H226", "assay": "(§3) Antiproliferative activity against human NCI-H226 cells assessed as growth inhibition after 48 hrs by sulforhodamine B assay", "format": "functional", "details": "NCI-H226, 48 h", "units": {"GI50": "µM", "TGI": "µM"}, "values": [
      {"smiles": "CNC(=O)c1cc(Oc2ccc3nc(NC(=O)Nc4cc(C(F)(F)F)cc(C(F)(F)F)c4)sc3c2)ccn1", "GI50": 1.45, "TGI": 3.57}
    ]},
    {"system": "NCI-H226", "assay": "as §3", "format": "functional", "details": "NCI-H226, 48 h, read-out: LC50 (the source's name)", "units": {"CC50": "µM"}, "values": [
      {"smiles": "CNC(=O)c1cc(Oc2ccc3nc(NC(=O)Nc4cc(C(F)(F)F)cc(C(F)(F)F)c4)sc3c2)ccn1", "CC50": 8.79}
    ]},
    {"system": "not listed separately", "assay": "Antiproliferative activity against human UACC257 cells assessed as cell growth at 10^-7 M after 48 hrs by sulforhodamine B assay", "format": "functional", "details": "UACC-257, 48 h, read-out: Activity", "units": {"growth at 0.1 µM": "%"}, "values": [
      {"smiles": "CNC(=O)c1cc(Oc2ccc3nc(NC(=O)Nc4cc(C(F)(F)F)cc(C(F)(F)F)c4)sc3c2)ccn1", "growth at 0.1 µM": 114}
    ]},
    {"system": "not listed separately", "assay": "(§4) Antiproliferative activity against human DU145 cells assessed as growth inhibition after 48 hrs by sulforhodamine B assay", "format": "functional", "details": "DU-145, 48 h", "units": {"GI50": "µM", "TGI": "µM"}, "values": [
      {"smiles": "CNC(=O)c1cc(Oc2ccc3nc(NC(=O)Nc4cc(C(F)(F)F)cc(C(F)(F)F)c4)sc3c2)ccn1", "GI50": 1.25, "TGI": 2.98}
    ]},
    {"system": "not listed separately", "assay": "as §4", "format": "functional", "details": "DU-145, 48 h, read-out: LC50 (the source's name)", "units": {"CC50": "µM"}, "values": [
      {"smiles": "CNC(=O)c1cc(Oc2ccc3nc(NC(=O)Nc4cc(C(F)(F)F)cc(C(F)(F)F)c4)sc3c2)ccn1", "CC50": 7.14}
    ]},
    {"system": "not listed separately", "assay": "Antiproliferative activity against human DU145 cells assessed as cell growth at 10^-7 M after 48 hrs by sulforhodamine B assay", "format": "functional", "details": "DU-145, 48 h, read-out: Activity", "units": {"growth at 0.1 µM": "%"}, "values": [
      {"smiles": "CNC(=O)c1cc(Oc2ccc3nc(NC(=O)Nc4cc(C(F)(F)F)cc(C(F)(F)F)c4)sc3c2)ccn1", "growth at 0.1 µM": 97}
    ]},
    {"system": "EKVX", "assay": "Antiproliferative activity against human EKVX cells assessed as cell growth at 10^-7 M after 48 hrs by sulforhodamine B assay", "format": "functional", "details": "read-out: Activity", "units": {"growth at 0.1 µM": "%"}, "values": [
      {"smiles": "CNC(=O)c1cc(Oc2ccc3nc(NC(=O)Nc4cc(C(F)(F)F)cc(C(F)(F)F)c4)sc3c2)ccn1", "growth at 0.1 µM": 92}
    ]},
    {"system": "not listed separately", "assay": "Antiproliferative activity against human OVCAR8 cells assessed as cell growth at 10^-8 M after 48 hrs by sulforhodamine B assay", "format": "functional", "details": "OVCAR-8, 48 h, read-out: Activity", "units": {"growth at 0.01 µM": "%"}, "values": [
      {"smiles": "CNC(=O)c1cc(Oc2ccc3nc(NC(=O)Nc4cc(C(F)(F)F)cc(C(F)(F)F)c4)sc3c2)ccn1", "growth at 0.01 µM": 102}
    ]},
    {"system": "T47D", "assay": "Antiproliferative activity against human T47D cells assessed as cell growth at 10^-4 M after 48 hrs by sulforhodamine B assay", "format": "functional", "details": "read-out: Activity", "units": {"growth at 100 µM": "%"}, "values": [
      {"smiles": "CNC(=O)c1cc(Oc2ccc3nc(NC(=O)Nc4cc(C(F)(F)F)cc(C(F)(F)F)c4)sc3c2)ccn1", "growth at 100 µM": -60}
    ]},
    {"system": "not listed separately", "assay": "Antiproliferative activity against human HCT15 cells assessed as cell growth at 10^-4 M after 48 hrs by sulforhodamine B assay", "format": "functional", "details": "HCT-15, 48 h, read-out: Activity", "units": {"growth at 100 µM": "%"}, "values": [
      {"smiles": "CNC(=O)c1cc(Oc2ccc3nc(NC(=O)Nc4cc(C(F)(F)F)cc(C(F)(F)F)c4)sc3c2)ccn1", "growth at 100 µM": -67}
    ]},
    {"system": "M14", "assay": "Antiproliferative activity against human M14 cells assessed as cell growth at 10^-7 M after 48 hrs by sulforhodamine B assay", "format": "functional", "details": "M14, 48 h, read-out: Activity", "units": {"growth at 0.1 µM": "%"}, "values": [
      {"smiles": "CNC(=O)c1cc(Oc2ccc3nc(NC(=O)Nc4cc(C(F)(F)F)cc(C(F)(F)F)c4)sc3c2)ccn1", "growth at 0.1 µM": 104}
    ]}
  ]
}
